Data: the NIST ThermoML archive (doi:10.1021/je101130e)
± gives the expanded uncertainty stated by the source.

Assays:
[1] = cn = amount concentration of the nth substance listed, in mol/dm3; settings: 101 kPa, Liquid, Alternating current cell with electrodes
[2] = mn = molality of the nth substance listed, in mol/kg; settings: 298.15 K, 101 kPa, Liquid, Vibrating tube method

CCOS(=O)(=O)[O-].CCn1cc[n+](C)c1 [1-ethyl-3-methylimidazolium ethyl sulfate] + CC#N
molar conductivity [S·m2/mol], [1]
Settings	273.15 K	278.15 K	283.15 K	288.15 K	293.15 K	298.15 K	303.15 K	308.15 K	313.15 K
c1 = 0.3706	0.01282 ± 1.3e-05	0.01356 ± 1.4e-05	0.014309 ± 1.4e-05	0.015072 ± 1.5e-05	0.01584 ± 1.6e-05	0.01663 ± 1.7e-05	0.017423 ± 1.7e-05	0.018226 ± 1.8e-05	0.019045 ± 1.9e-05
c1 = 0.7493	0.01255 ± 1.3e-05	0.01327 ± 1.3e-05	0.014004 ± 1.4e-05	0.01475 ± 1.5e-05	0.0155 ± 1.6e-05	0.016262 ± 1.6e-05	0.01704 ± 1.7e-05	0.01782 ± 1.8e-05	0.01862 ± 1.9e-05
c1 = 1.176	0.012313 ± 1.2e-05	0.013021 ± 1.3e-05	0.01374 ± 1.4e-05	0.01447 ± 1.5e-05	0.015211 ± 1.5e-05	0.01596 ± 1.6e-05	0.01672 ± 1.7e-05	0.017492 ± 1.7e-05	0.018273 ± 1.8e-05
c1 = 1.698	0.012085 ± 1.2e-05	0.01278 ± 1.3e-05	0.013489 ± 1.3e-05	0.014207 ± 1.4e-05	0.01493 ± 1.5e-05	0.01567 ± 1.6e-05	0.016414 ± 1.6e-05	0.017171 ± 1.7e-05	0.01794 ± 1.8e-05
c1 = 2.185	0.01189 ± 1.2e-05	0.01258 ± 1.3e-05	0.013276 ± 1.3e-05	0.01398 ± 1.4e-05	0.0147 ± 1.5e-05	0.01542 ± 1.5e-05	0.016154 ± 1.6e-05	0.0169 ± 1.7e-05	0.01765 ± 1.8e-05
c1 = 2.695	0.01172 ± 1.2e-05	0.012392 ± 1.2e-05	0.013078 ± 1.3e-05	0.01377 ± 1.4e-05	0.01448 ± 1.5e-05	0.01519 ± 1.5e-05	0.01591 ± 1.6e-05	0.01664 ± 1.7e-05	0.017386 ± 1.7e-05
c1 = 3.269	0.01154 ± 1.2e-05	0.012206 ± 1.2e-05	0.01288 ± 1.3e-05	0.01357 ± 1.4e-05	0.014261 ± 1.4e-05	0.01496 ± 1.5e-05	0.01567 ± 1.6e-05	0.016396 ± 1.6e-05	0.017125 ± 1.7e-05
c1 = 3.882	0.011371 ± 1.1e-05	0.012029 ± 1.2e-05	0.0127 ± 1.3e-05	0.01337 ± 1.3e-05	0.014054 ± 1.4e-05	0.01475 ± 1.5e-05	0.015446 ± 1.5e-05	0.016155 ± 1.6e-05	0.01687 ± 1.7e-05
c1 = 4.671	0.01117 ± 1.1e-05	0.01182 ± 1.2e-05	0.01247 ± 1.3e-05	0.013136 ± 1.3e-05	0.01381 ± 1.4e-05	0.01449 ± 1.5e-05	0.015177 ± 1.5e-05	0.01588 ± 1.6e-05	0.01658 ± 1.7e-05
c1 = 5.374	0.011016 ± 1.1e-05	0.01165 ± 1.2e-05	0.0123 ± 1.2e-05	0.01295 ± 1.3e-05	0.01362 ± 1.4e-05	0.014287 ± 1.4e-05	0.01497 ± 1.5e-05	0.01566 ± 1.6e-05	0.01635 ± 1.6e-05
c1 = 5.987	0.01089 ± 1.1e-05	0.01152 ± 1.2e-05	0.012165 ± 1.2e-05	0.01281 ± 1.3e-05	0.01347 ± 1.3e-05	0.014134 ± 1.4e-05	0.0148 ± 1.5e-05	0.01549 ± 1.6e-05	0.016173 ± 1.6e-05
c1 = 6.546	0.01079 ± 1.1e-05	0.011417 ± 1.1e-05	0.012051 ± 1.2e-05	0.01269 ± 1.3e-05	0.013343 ± 1.3e-05	0.014 ± 1.4e-05	0.01467 ± 1.5e-05	0.015338 ± 1.5e-05	0.016021 ± 1.6e-05

[2]
Settings	mass density [kg/m3]
m1 = 0.006546	777.183 ± 10
m1 = 0.1445	788.755 ± 10

CCOS(=O)(=O)[O-].CCn1cc[n+](C)c1 [1-ethyl-3-methylimidazolium ethyl sulfate] + ClCCl
molar conductivity [S·m2/mol], [1]
Settings	273.15 K	278.15 K	283.15 K	288.15 K	293.15 K	298.15 K	303.15 K	308.15 K
c1 = 0.5399	0.0004064 ± 4e-07	0.0004194 ± 4e-07	0.0004324 ± 4e-07	0.0004454 ± 4e-07	0.0004554 ± 5e-07	0.000462 ± 5e-07	0.000471 ± 5e-07	0.0004771 ± 5e-07
c1 = 0.8656	0.0003364 ± 3e-07	0.0003471 ± 4e-07	0.0003579 ± 4e-07	0.0003684 ± 4e-07	0.0003768 ± 4e-07	0.0003829 ± 4e-07	0.0003904 ± 4e-07	0.0003958 ± 4e-07
c1 = 1.152	0.0003033 ± 3e-07	0.0003131 ± 3e-07	0.0003228 ± 3e-07	0.0003322 ± 3e-07	0.0003398 ± 3e-07	0.0003455 ± 3e-07	0.0003521 ± 4e-07	0.0003571 ± 4e-07
c1 = 1.504	0.0002764 ± 3e-07	0.0002855 ± 3e-07	0.0002943 ± 3e-07	0.0003028 ± 3e-07	0.0003098 ± 3e-07	0.0003152 ± 3e-07	0.0003212 ± 3e-07	0.0003258 ± 3e-07
c1 = 1.808	0.0002603 ± 3e-07	0.0002689 ± 3e-07	0.0002772 ± 3e-07	0.0002852 ± 3e-07	0.0002918 ± 3e-07	0.0002971 ± 3e-07	0.0003029 ± 3e-07	0.0003073 ± 3e-07
c1 = 2.099	0.0002493 ± 3e-07	0.0002575 ± 3e-07	0.0002653 ± 3e-07	0.000273 ± 3e-07	0.0002794 ± 3e-07	0.0002845 ± 3e-07	0.00029 ± 3e-07	0.0002942 ± 3e-07
c1 = 2.376	0.0002409 ± 2e-07	0.0002489 ± 3e-07	0.0002566 ± 3e-07	0.000264 ± 3e-07	0.0002702 ± 3e-07	0.0002753 ± 3e-07	0.0002806 ± 3e-07	0.0002849 ± 3e-07
c1 = 2.723	0.0002334 ± 2e-07	0.0002412 ± 2e-07	0.0002486 ± 3e-07	0.0002557 ± 3e-07	0.0002618 ± 3e-07	0.0002668 ± 3e-07	0.000272 ± 3e-07	0.0002762 ± 3e-07
c1 = 3.074	0.0002276 ± 2e-07	0.0002352 ± 2e-07	0.0002425 ± 2e-07	0.0002494 ± 3e-07	0.0002554 ± 3e-07	0.0002604 ± 3e-07	0.0002655 ± 3e-07	0.0002698 ± 3e-07
c1 = 3.333	0.000224 ± 2e-07	0.0002315 ± 2e-07	0.0002387 ± 2e-07	0.0002455 ± 3e-07	0.0002514 ± 3e-07	0.0002564 ± 3e-07	0.0002615 ± 3e-07	0.0002657 ± 3e-07
c1 = 3.607	0.0002213 ± 2e-07	0.0002288 ± 2e-07	0.0002359 ± 2e-07	0.0002427 ± 2e-07	0.0002488 ± 3e-07	0.0002538 ± 3e-07	0.0002588 ± 3e-07	0.000263 ± 3e-07
c1 = 3.931	0.000219 ± 2e-07	0.0002264 ± 2e-07	0.0002334 ± 2e-07	0.0002401 ± 2e-07	0.0002459 ± 3e-07	0.000251 ± 3e-07	0.000256 ± 3e-07	0.0002601 ± 3e-07

CCOS(=O)(=O)[O-].CCn1cc[n+](C)c1 [1-ethyl-3-methylimidazolium ethyl sulfate] + O
molar conductivity [S·m2/mol], [1]
Settings	c1 = 0.6368	c1 = 1.07	c1 = 1.527	c1 = 1.991	c1 = 2.48	c1 = 3.114	c1 = 3.767	c1 = 4.385	c1 = 5.086
278.15 K	0.00496 ± 5e-06	0.0049391 ± 4.9e-06	0.0049163 ± 4.9e-06	0.004892 ± 4.9e-06	0.004877 ± 4.9e-06	0.0048486 ± 4.8e-06	0.0048261 ± 4.8e-06	0.00479 ± 4.8e-06	0.004783 ± 4.8e-06
283.15 K	0.0057155 ± 5.7e-06	0.00569 ± 5.7e-06	0.005664 ± 5.7e-06	0.0056374 ± 5.6e-06	0.0056159 ± 5.6e-06	0.005585 ± 5.6e-06	0.005559 ± 5.6e-06	0.0055336 ± 5.5e-06	0.0055088 ± 5.5e-06
288.15 K	0.0065118 ± 6.5e-06	0.00648 ± 6.5e-06	0.0064496 ± 6.4e-06	0.0064206 ± 6.4e-06	0.006395 ± 6.4e-06	0.00636 ± 6.4e-06	0.0063311 ± 6.3e-06	0.0063021 ± 6.3e-06	0.006274 ± 6.3e-06
293.15 K	0.0073408 ± 7.3e-06	0.0073039 ± 7.3e-06	0.007271 ± 7.3e-06	0.0072366 ± 7.2e-06	0.0072073 ± 7.2e-06	0.007169 ± 7.2e-06	0.007135 ± 7.1e-06	0.0071023 ± 7.1e-06	0.007071 ± 7.1e-06
298.15 K	0.0082055 ± 8.2e-06	0.008163 ± 8.2e-06	0.008125 ± 8.1e-06	0.008088 ± 8.1e-06	0.008054 ± 8.1e-06	0.0080112 ± 8e-06	0.007974 ± 8e-06	0.0079372 ± 7.9e-06	0.0079028 ± 7.9e-06
303.15 K	0.009098 ± 9.1e-06	0.009052 ± 9.1e-06	0.0090088 ± 9e-06	0.008967 ± 9e-06	0.00893 ± 8.9e-06	0.008882 ± 8.9e-06	0.0088395 ± 8.8e-06	0.008799 ± 8.8e-06	0.008761 ± 8.8e-06
308.15 K	0.010022 ± 1e-05	0.00997 ± 1e-05	0.0099213 ± 9.9e-06	0.009875 ± 9.9e-06	0.0098348 ± 9.8e-06	0.009782 ± 9.8e-06	0.0097357 ± 9.7e-06	0.009689 ± 9.7e-06	0.0096453 ± 9.6e-06
313.15 K	0.01096 ± 1.1e-05	0.01092 ± 1.1e-05	0.01086 ± 1.1e-05	0.01081 ± 1.1e-05	0.01076 ± 1.1e-05	0.01071 ± 1.1e-05	0.01066 ± 1.1e-05	0.01061 ± 1.1e-05	0.01056 ± 1.1e-05

[2]
Settings	mass density [kg/m3]
m1 = 0.005086	997.281 ± 10
m1 = 0.06934	1000.11 ± 10
